These results are taken from patent publication US20130158111A1, “Compositions and Methods for Depleting Mutant p53” (Georgetown University, priority 2011, published 2013).

For one experiment, the system named is mda-mb-231 (R280K) cells. Description: Cell proliferation, mda-mb-231. Format: cell-based, Human. The protocol:
(§1) Next, the effect of PEITC exposure on tumor growth of the tumor cell lines expressing mutant or the WT p53 protein was examined. […] This hypersensitivity to PEITC being mediated through mutant p53 was next examined. The effect of PEITC on mda-mb-231 cells depleted of mutant p53 by >90% was compared to non-specific (NS) siRNA transfected cells as a control (FIG. 9B). […] Further the effect of PEITC treatment on the level of mutant p53 protein at lower doses was analyzed by western blot analysis (FIG. 9D).

The target in experiment [1] is T1, mutant (G245C) p53 DNA-binding domain (Homo sapiens, UniProt P04637, G245C).
T1 construct: made in house; host or cells: Escherichia coli BL21
Description: Monochlorobimane fluorometric cysteine binding assay. To be noted: 100 μM ITC, 1 h, 32 C; compared with trityl ITC, cyclohexylmethyl ITC, SFN, AITC, and PITC (p<0.05). As to the method: BL21 […] Escherichia coli were transformed with pET29b wild-type or mutant (G245C) p53 DNA binding domain (DBD) plasmids. The E. coli were then cultured in LB media supplemented with 100 μM ZnCl2 and 25 μg/mL kanamycin at 37° C. until OD600=0.6-0.8. Protein expression was induced by 0.1 mM isopropyl β-D-1-thiogalactopyranoside for 16 h at 37 gC for wild-type and 16 gC for mutant p53. Bacterial pellets were then harvested by centrifugation at 5000×g, 10 min, 4 gC, and lysed via sonication in 50 mM Tris, 50 mM KCl, 5 mM dithiothreitol, 1 mM PMSF, pH 7 buffer. The soluble fraction was passed through a Capto S cation exchange column (GE Healthcare) and eluted with 50 mM Tris, 200 mM KCl, 5 mM DTT, pH 7. Eluted protein was dialyzed overnight against a non-salt dialysis buffer (50 mM Tris, 5 mM DTT, pH 7) and loaded onto a HiTrap Heparin HP column (GE Healthcare). The p53 DBD was purified via a AKTApurifier-10 protein liquid chromatography system (GE Healthcare) with an increasing KCl salt gradient, and purity was tested by SDSPAGE and Coomassie blue staining. Purified protein was dialyzed in PBS, and protein concentrations were determined prior to performing fluorescence experiments.
In a white 96-well plate, 100 μL of purified mutant (G245C) p53 DNA-binding domain protein in PBS was treated with DMSO, 100 μM ITCs in DMSO, or 500 μM iodoacetamide (positive binding control). An additional well containing 100 μL of PBS was used to determine background. Samples were incubated with compounds in the dark for 1 h at 32 gC, after which […] of 10 mM monochlorobimane was added (in the dark), and samples were further incubated in the dark at 32 gC for 30 min. Fluorescence readings were then obtained using a BIO-TEK Synergy HT plate reader (λex 380 nm; λem 485 nm).

For the next experiment, the system named is DU145 cells. Description: Apoptosis and cell cycle progression, DU145. The class given is cell-based, Human. To be noted: DU145, 4 uM PEITC. The source says:
(§2) The negative effects of PEITC on cell proliferation might affect the apoptotic potential of the cells and the cell cycle progression.

The target in experiment [2] is T2, p53R175H mutant protein in SK-BR-3 cells (Homo sapiens, UniProt P04637, R175H).
T2 construct: endogenous in cells; host or cells: SK-BR-3
Description: Immunofluorescence with conformation specific antibodies (PAB240, PAB1620). Format: cell-based. The conditions noted are these: SK-BR-3, PEITC 4 hrs vs DMSO. As to the method: To determine if the induction of apoptosis is due to the restoration of WT conformation to the mutant p53 protein, immunoflourescence analysis was performed. SK-BR-3 cells expressing p53R175H mutant protein were treated with PEITC or DMSO as a control for 4 hrs. Cells were stained with the conformation specific antibody (PAB240) that recognizes the mutant p53 or antibody specific for the WT p53 protein (PAB1620).

The test system of a further experiment is HOP-92 (R175L) cell line. Description: Cell proliferation, HOP-92. Format: cell-based. The conditions noted are these: Homo sapiens, 250 nM PEITC. The protocol: as §1
The subject of a further experiment is mutant p53 mRNA. Nature of the experiment: Reverse transcription PCR of p53 mRNA in H596 cells. The class given is cell-based, Human. The conditions noted are these: H596, 15 μM PEITC; 2, 4, and 6 h. The protocol: Total RNA was extracted from the cells using the RNeasy kit (Qiagen). Reverse transcription PCR was performed using SuperScript One-Step RT-PCR kit (Invitrogen) according to the manufacturer's instructions. Primers for p53 were 5′-[…]-3′ (sense) and 3′-[…]-5′ (antisense). Primers for β-actin were 5′-[…]-3′ (sense) and 3′-[…]-5′ (antisense). β-Actin was used as an internal standard for RNA normalization.

Another experiment relates to A549 (WT p53) cell line. Description: Cell proliferation, A549. Format: cell-based, Human. As to the method: as §1
The subject of a further experiment is H522 cells. Nature of the experiment: Apoptosis and cell cycle progression, H522. Format: cell-based. To be noted: H522, 4 uM PEITC.
Source text: as §2

The test system of experiment [3] is LNCap (wild-type p53) xenograft tumors. Nature of the experiment: Xenograft model, LNCap tumors, PEITC diet. The class given is in vivo, BALB/C nu/nu transgenic mice. As to the method: Briefly, 30 BALB/C nu/nu transgenic mice (purchased from Charles River) were randomized into two groups, and fed with powder diet AlN93 (purchased from Research Diets, Inc.) with or without addition of 5 μM PEITC compound (purchased from Sigma-Aldrich). After two weeks of feeding, two xenograft tumors each carrying […] in a volume of 100 μL were established by injection into both flanks of a mouse. Mice were continuously fed with diets with or without PEITC for additional 8 weeks before sacrifice. Diet intake and tumor volume were measured twice every week. Tumors were harvested at the end of bioassay for immunohistochemistry and immunoblot studies. […] Immunohistochemistry assays were carried out to examine the apoptotic markers, such as TUNEL, and anti-proliferation marker Ki67 in tumors from the PEITC-treated vs. untreated mice. This study provides the first in vivo evidence that mutant p53 can be depleted in tumors of mice fed PEITC-containing diet and its depletion seems to correlate with growth inhibition in the mutant p53 tumors.

In general, inhibition refers to the drop in the measured response relative to a control, in per cent. Low values mean little suppression, high ones strong suppression.

`S=C=NCCc1ccccc1` [PEITC, phenethyl isothiocyanate] showed an inhibition at 1 µM in the experiment with mda-mb-231 (R280K) cells (Homo sapiens, mda-mb-231 (R280K), 1 μM PEITC) of 55%. The “sensitivity to cell growth inhibition” value in the experiment with mda-mb-231 (R280K) cells (control (NS) siRNA transfected mda-mb-231 cells) is on record as “highly sensitive”; in the experiment on mda-mb-231 (R280K) cells (mda-mb-231 cells depleted of mutant p53 by >90% (siRNA)), “significant reduction in the sensitivity”. The “binding affinity for mutant (G245C) p53 DBD (free thiols, relative fluorescence)” value in [1] is reported as “greater binding affinities”. For the same compound, the “apoptosis compared to DMSO treated cells” value in the experiment with DU145 cells and in the experiment with H522 cells was “two fold increase” in each case. Moreover, the cell cycle progression entry with DU145 cells and in the experiment with H522 cells was “S-phase arrest” each time. Moreover, the “conformation of p53R175H mutant (PAB1620 staining)” value in experiment [2] is reported as “induced conformation change”. This compound also displayed an inhibition at 0.25 µM with HOP-92 (R175L) cell line of 40%. In addition, the “mutant p53 mRNA levels” value with mutant p53 mRNA was “remained unchanged”. Further, the “reduction in cell proliferation” value with A549 (WT p53) cell line (12 μM PEITC) is 25%; with A549 (WT p53) cell line (14 μM PEITC) it was 45%. In experiment [3] (LNCap tumors, PEITC diet), the “p53 level in tumors detected by immunoblot” value was “not in LNCap tumors”. For the same compound, the tumor volume result in experiment [3] (LNCap xenograft, diet with 5 μM PEITC vs diet without PEITC, 8 weeks) is “significantly decreased”.
